Results: ChEMBL document CHEMBL4393734, “Structure-aided optimization of 3-O-β-chacotriosyl ursolic acid as novel H5N1 entry inhibitors with high selective index” (Bioorg Med Chem, 2019)
The source made the active and inactive calls. No cut-off for these calls is given here.

What was measured:
Influenza A virus [1] = assay: Antiviral activity against influenza A virus A/Duck/Guangdong/99(H5N1) infected in MDCK cells assessed as reduction in virus induced cytopathic effect preincubated for 30 mins with virus followed by viral infection and measured after 48 hrs by microscopy analysis; assay type: functional, organism-based
[2] = Cytotoxicity against dog MDCK cells measured after 48 hrs by MTT assay; assay type: cell-based, Canis lupus familiaris
[3] = Selectivity index, ratio of CC50 for dog MDCK cells to IC50 for influenza A virus A/Duck/Guangdong/99(H5N1); assay type: toxicity; conditions: read-out: Ratio CC50/IC50
[4] = molecular target: Neuraminidase (Influenza A virus (A/Puerto Rico/8/1934(H1N1))) (UniProt P03468); assay: Inhibition of Influenza A virus (A/Puerto Rico/8/34(H1N1) neuraminidase N1 using MUNANA as substrate preincubated for 30 mins followed by substrate addition and further incubated for 1 hr in dark by microplate reader based fluorescence assay
Influenza A virus [5] = assay: Antiviral activity against influenza A virus A/Duck/Guangdong/99(H5N1) infected in MDCK cells assessed as inhibition of viral replication measured after 48 hr post infection by FITC/DAPI-staining based immunofluorescence microscopy assay; assay type: functional, organism-based
Influenza A virus [6] = assay: Antiviral activity against influenza A virus H5N1 pseudovirus with HA (A/Thailand/Kan353/2004(H5N1) - HA/NA (A/Thailand/Kan353/2004(H5N1) -NA/HIV core plasmids infected in MDCK cells assessed as pseudovirus neutralization incubated for 30 mins with virus followed by viral infection and measured after 48 hrs by luciferase assay; assay type: functional, organism-based
[7] = molecular target: Hemagglutinin (Influenza A virus) (UniProt B4URE7); assay: Inhibition of influenza A virus HA-mediated chicken erythrocytes hemagglutination measured after 1 hr
Hemagglutinin = Hemagglutinin (Influenza A virus, UniProt B4URE7); assay: Binding affinity to influenza A virus hemagglutin by surface plasmon resonance assay
[8] = Binding affinity to influenza A virus hemagglutinin 1 by surface plasmon resonance assay
[9] = system: Vesicular stomatitis virus; assay: Antiviral activity against VSV-G pseudovirus infected in MDCK cells assessed as pseudovirus neutralization preincubated for 30 mins with virus and followed by viral infection and measured after 48 hrs by luciferase assay; assay type: functional, organism-based

Chain of Neuraminidase (Influenza A virus (A/Puerto Rico/8/1934(H1N1))) (P03468 whole entry): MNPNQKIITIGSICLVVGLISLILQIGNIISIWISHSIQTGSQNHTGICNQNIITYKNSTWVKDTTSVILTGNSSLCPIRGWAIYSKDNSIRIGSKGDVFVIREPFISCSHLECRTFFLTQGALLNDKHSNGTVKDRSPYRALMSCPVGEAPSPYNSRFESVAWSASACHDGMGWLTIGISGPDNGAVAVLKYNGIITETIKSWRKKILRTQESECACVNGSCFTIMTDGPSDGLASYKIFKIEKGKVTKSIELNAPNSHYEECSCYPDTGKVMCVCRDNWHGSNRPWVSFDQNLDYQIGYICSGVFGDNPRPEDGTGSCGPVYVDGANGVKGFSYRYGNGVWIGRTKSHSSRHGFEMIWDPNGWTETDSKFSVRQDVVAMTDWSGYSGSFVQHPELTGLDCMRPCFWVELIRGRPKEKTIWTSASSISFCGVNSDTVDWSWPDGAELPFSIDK
Chain of Hemagglutinin (B4URE7 whole entry): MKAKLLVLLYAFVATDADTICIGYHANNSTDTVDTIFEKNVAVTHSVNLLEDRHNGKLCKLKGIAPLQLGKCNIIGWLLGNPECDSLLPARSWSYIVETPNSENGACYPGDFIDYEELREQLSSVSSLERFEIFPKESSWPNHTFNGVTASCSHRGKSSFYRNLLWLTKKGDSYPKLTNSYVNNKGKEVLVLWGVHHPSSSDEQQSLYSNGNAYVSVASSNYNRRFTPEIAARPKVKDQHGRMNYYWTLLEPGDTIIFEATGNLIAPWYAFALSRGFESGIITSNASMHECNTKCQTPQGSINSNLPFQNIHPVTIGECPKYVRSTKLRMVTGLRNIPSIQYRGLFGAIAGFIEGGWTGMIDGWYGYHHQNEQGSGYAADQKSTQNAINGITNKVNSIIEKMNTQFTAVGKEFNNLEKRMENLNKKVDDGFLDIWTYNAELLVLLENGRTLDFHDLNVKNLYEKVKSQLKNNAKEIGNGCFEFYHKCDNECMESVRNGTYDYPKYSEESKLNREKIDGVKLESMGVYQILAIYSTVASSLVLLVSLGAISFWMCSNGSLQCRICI
Chain of Hemagglutinin (Influenza A virus) (B4URE7 as listed by the source): as the sequence (B4URE7 whole entry) above

| SMILES | IC50 (Influenza A virus [1]) | CC50 at 48 h [2] | selectivity ratio [3] | also measured |
| --- | --- | --- | --- | --- |
| C[C@H]1[C@H](C)CC[C@]2(C(=O)Nc3ccc(Br)cc3)CC[C@]3(C)C(=CC[C@@H]4[C@@]5(C)CC[C@H](O[C@@H]6O[C@H](CO)[C@@H](O[C@@H]7O[C@@H](C)[C@H](O)[C@@H](O)[C@H]7O)[C@H](O)[C@H]6O[C@@H]6O[C@@H](C)[C@H](O)[C@@H](O)[C@H]6O)C(C)(C)[C@@H]5CC[C@]43C)[C@H]12 | > 50 µM | – | – | – |
| C[C@H]1[C@H](C)CC[C@]2(C(=O)NCCN(C)C)CC[C@]3(C)C(=CC[C@@H]4[C@@]5(C)CC[C@H](O[C@@H]6O[C@H](CO)[C@@H](O[C@@H]7O[C@@H](C)[C@H](O)[C@@H](O)[C@H]7O)[C@H](O)[C@H]6O[C@@H]6O[C@@H](C)[C@H](O)[C@@H](O)[C@H]6O)C(C)(C)[C@@H]5CC[C@]43C)[C@H]12 | > 50 µM | – | – | – |
| COc1cccc(NC(=O)[C@]23CC[C@@H](C)[C@H](C)[C@H]2C2=CC[C@@H]4[C@@]5(C)CC[C@H](O[C@@H]6O[C@H](CO)[C@@H](O[C@@H]7O[C@@H](C)[C@H](O)[C@@H](O)[C@H]7O)[C@H](O)[C@H]6O[C@@H]6O[C@@H](C)[C@H](O)[C@@H](O)[C@H]6O)C(C)(C)[C@@H]5CC[C@@]4(C)[C@]2(C)CC3)c1 | 5.92 µM | > 1000 µM | > 113 | – |
| C[C@H]1[C@H](C)CC[C@]2(C(=O)O)CC[C@]3(C)C(=CC[C@@H]4[C@@]5(C)CC[C@H](O[C@@H]6O[C@H](CO)[C@@H](O[C@@H]7O[C@@H](C)[C@H](O)[C@@H](O)[C@H]7O)[C@H](O)[C@H]6O[C@@H]6O[C@@H](C)[C@H](O)[C@@H](O)[C@H]6O)C(C)(C)[C@@H]5CC[C@]43C)[C@H]12 | 16.4 µM | 25.3 µM | 1.5 | – |
| C[C@H]1[C@H](C)CC[C@]2(C(=O)Nc3ccccc3Cl)CC[C@]3(C)C(=CC[C@@H]4[C@@]5(C)CC[C@H](O[C@@H]6O[C@H](CO)[C@@H](O[C@@H]7O[C@@H](C)[C@H](O)[C@@H](O)[C@H]7O)[C@H](O)[C@H]6O[C@@H]6O[C@@H](C)[C@H](O)[C@@H](O)[C@H]6O)C(C)(C)[C@@H]5CC[C@]43C)[C@H]12 | 2.98 µM | 306 µM | 103 | – |
| C[C@H]1[C@H](C)CC[C@]2(C(=O)Nc3cccc(Cl)c3)CC[C@]3(C)C(=CC[C@@H]4[C@@]5(C)CC[C@H](O[C@@H]6O[C@H](CO)[C@@H](O[C@@H]7O[C@@H](C)[C@H](O)[C@@H](O)[C@H]7O)[C@H](O)[C@H]6O[C@@H]6O[C@@H](C)[C@H](O)[C@@H](O)[C@H]6O)C(C)(C)[C@@H]5CC[C@]43C)[C@H]12 | 7.35 µM | > 1000 µM | > 136 | – |
| C[C@H]1[C@H](C)CC[C@]2(C(=O)Nc3ccc(OC(F)(F)F)cc3)CC[C@]3(C)C(=CC[C@@H]4[C@@]5(C)CC[C@H](O[C@@H]6O[C@H](CO)[C@@H](O[C@@H]7O[C@@H](C)[C@H](O)[C@@H](O)[C@H]7O)[C@H](O)[C@H]6O[C@@H]6O[C@@H](C)[C@H](O)[C@@H](O)[C@H]6O)C(C)(C)[C@@H]5CC[C@]43C)[C@H]12 | 8.56 µM | 451 µM | 52.6 | – |
| C[C@H]1[C@H](C)CC[C@]2(C(=O)N3CCCC3)CC[C@]3(C)C(=CC[C@@H]4[C@@]5(C)CC[C@H](O[C@@H]6O[C@H](CO)[C@@H](O[C@@H]7O[C@@H](C)[C@H](O)[C@@H](O)[C@H]7O)[C@H](O)[C@H]6O[C@@H]6O[C@@H](C)[C@H](O)[C@@H](O)[C@H]6O)C(C)(C)[C@@H]5CC[C@]43C)[C@H]12 | 3.25 µM | 42.4 µM | 13 | – |
| C[C@H]1[C@H](C)CC[C@]2(C(=O)Nc3ccc(Cl)cc3)CC[C@]3(C)C(=CC[C@@H]4[C@@]5(C)CC[C@H](O[C@@H]6O[C@H](CO)[C@@H](O[C@@H]7O[C@@H](C)[C@H](O)[C@@H](O)[C@H]7O)[C@H](O)[C@H]6O[C@@H]6O[C@@H](C)[C@H](O)[C@@H](O)[C@H]6O)C(C)(C)[C@@H]5CC[C@]43C)[C@H]12 | 3.48 µM | > 1000 µM | > 287 | inhibition [4]: inactive |
| COc1ccc(NC(=O)[C@]23CC[C@@H](C)[C@H](C)[C@H]2C2=CC[C@@H]4[C@@]5(C)CC[C@H](O[C@@H]6O[C@H](CO)[C@@H](O[C@@H]7O[C@@H](C)[C@H](O)[C@@H](O)[C@H]7O)[C@H](O)[C@H]6O[C@@H]6O[C@@H](C)[C@H](O)[C@@H](O)[C@H]6O)C(C)(C)[C@@H]5CC[C@@]4(C)[C@]2(C)CC3)cc1 | 2.12 µM | > 1000 µM | > 472 | inhibition [4]: inactive |
| C[C@H]1[C@H](C)CC[C@]2(C(=O)NCc3ccccc3)CC[C@]3(C)C(=CC[C@@H]4[C@@]5(C)CC[C@H](O[C@@H]6O[C@H](CO)[C@@H](O[C@@H]7O[C@@H](C)[C@H](O)[C@@H](O)[C@H]7O)[C@H](O)[C@H]6O[C@@H]6O[C@@H](C)[C@H](O)[C@@H](O)[C@H]6O)C(C)(C)[C@@H]5CC[C@]43C)[C@H]12 | 9.35 µM | 123 µM | 13.2 | – |
| C[C@H]1[C@H](C)CC[C@]2(C(=O)Nc3ccccc3)CC[C@]3(C)C(=CC[C@@H]4[C@@]5(C)CC[C@H](O[C@@H]6O[C@H](CO)[C@@H](O[C@@H]7O[C@@H](C)[C@H](O)[C@@H](O)[C@H]7O)[C@H](O)[C@H]6O[C@@H]6O[C@@H](C)[C@H](O)[C@@H](O)[C@H]6O)C(C)(C)[C@@H]5CC[C@]43C)[C@H]12 | 5.85 µM | > 1000 µM | > 171 | – |
| COc1ccccc1NC(=O)[C@]12CC[C@@H](C)[C@H](C)[C@H]1C1=CC[C@@H]3[C@@]4(C)CC[C@H](O[C@@H]5O[C@H](CO)[C@@H](O[C@@H]6O[C@@H](C)[C@H](O)[C@@H](O)[C@H]6O)[C@H](O)[C@H]5O[C@@H]5O[C@@H](C)[C@H](O)[C@@H](O)[C@H]5O)C(C)(C)[C@@H]4CC[C@@]3(C)[C@]1(C)CC2 | 1.05 µM | > 1000 µM | > 952 | Activity (Influenza A virus [5]): Dose-dependent effect; IC50 (Influenza A virus [6]): 1.28 µM; inhibition [4]: inactive; inhibition [7]: Dose-dependent effect; Kd (Hemagglutinin): 0.00122 µM; Kd [8]: 0.44 µM; inhibition [9]: inactive |
| C[C@H]1[C@H](C)CC[C@]2(C(=O)Nc3ccc(F)cc3)CC[C@]3(C)C(=CC[C@@H]4[C@@]5(C)CC[C@H](O[C@@H]6O[C@H](CO)[C@@H](O[C@@H]7O[C@@H](C)[C@H](O)[C@@H](O)[C@H]7O)[C@H](O)[C@H]6O[C@@H]6O[C@@H](C)[C@H](O)[C@@H](O)[C@H]6O)C(C)(C)[C@@H]5CC[C@]43C)[C@H]12 | 5.28 µM | > 1000 µM | > 189 | – |
| COc1ccc(CNC(=O)[C@]23CC[C@@H](C)[C@H](C)[C@H]2C2=CC[C@@H]4[C@@]5(C)CC[C@H](O[C@@H]6O[C@H](CO)[C@@H](O[C@@H]7O[C@@H](C)[C@H](O)[C@@H](O)[C@H]7O)[C@H](O)[C@H]6O[C@@H]6O[C@@H](C)[C@H](O)[C@@H](O)[C@H]6O)C(C)(C)[C@@H]5CC[C@@]4(C)[C@]2(C)CC3)cc1 | 8.72 µM | 100 µM | 11.5 | – |
| CNC(=O)[C@]12CC[C@@H](C)[C@H](C)[C@H]1C1=CC[C@@H]3[C@@]4(C)CC[C@H](O[C@@H]5O[C@H](CO)[C@@H](O[C@@H]6O[C@@H](C)[C@H](O)[C@@H](O)[C@H]6O)[C@H](O)[C@H]5O[C@@H]5O[C@@H](C)[C@H](O)[C@@H](O)[C@H]5O)C(C)(C)[C@@H]4CC[C@@]3(C)[C@]1(C)CC2 | 11.2 µM | 683 µM | 60.7 | – |
